Results reported in publication PMC7756445, “A Novel Prodrug of a nNOS Inhibitor with Improved Pharmacokinetic Potential” (Chemmedchem, 2020).
Where two headings read alike, the source gives them in different places.

Legend:
[1] = Log D and log P by shake-flask method; format: physicochemical; conditions: for logP: shake-flask, as free amine, mean ± SD of three
Source text: The herein presented amidoxime 2 was designed as prodrug of the amidine 1 to improve membrane permeability and oral bioavailability. In this context, the deepening of the physicochemical properties is essential to obtain a favorable pharmacological profile. Therefore, we investigated the lipophilicity, the passive permeation through the human GI tract through the PAMPA assays, and the chemical and enzymatic stabilities in simulated GI fluids and plasma. […] In this study, the lipophilicity of our compounds was determined by means of the “shake‐flask method” and compared to the corresponding values calculated by the software. ^[43] However, for ionizable compounds, the distribution coefficient (log D) should be used instead of log P in the pH range where ionic species exist. ^[44] In this study, log P and log D were calculated (Table 1).
The column was a Waters Symmetry RP‐C18 column (4.6×150 mm, 5 μm). The mobile phase was a mixture of TFA 0.01 M/ACN/(MeOH/THF 90 : 10) 20/52/28 and the flow rate was 0.7 mL/min. The UV detector was set at a length of 254 nm.
Both n‐octanol and aqueous buffer (pH 1.4, 6.5 and 9.4) solutions were saturated of each other. 2 mg of tested compound was dissolved in 500 μL of organic phase and mixed with an equal volume of aqueous buffer by repeated inversions of up to 200 times for 5 min and then allowed to stand for 30 min for the phases to fully separate. Thereafter, the respective phases were analyzed by HPLC.

PAMPA-GI assay = assay: PAMPA-GI assay; set-up: Papp at 2 h: dose or concentration left out as unconfirmed; conditions: for Papp at 2 h: PAMPA; for PAMPA-GI permeability (in words): only at pH 7.4
Procedure: (§1) The relative passive transcellular diffusion of compounds, expressed as permeability coefficient (Pe), was determined with a permeability equation. ^[45] The permeabilities of 1, 2, and 1400 W were determined at pH 5.0, 6.5, and 7.4 to mimic the physiological conditions of the GI tract (Table 1). […] As the new prodrug was designed for the potential treatment of neurodegenerative diseases, an important parameter is its capability to cross the BBB.
Each donor filtration plate well, carefully impregnated with 5 µL of this solution, was added of 150 μL of […] test compound buffer solutions (phosphate buffer for pH 7.4 and pH 6.5 and hydrochloric acid buffer for pH 1.4). Subsequently, the drug‐filled donor plate was placed onto the acceptor plate prefilled with the same buffer (300 μL) as the acceptor solution. Once replaced the plate lid, the resulting assembled donor‐acceptor plates were incubated at room temperature for 2 h. The concentration in the acceptor and donor solutions were determined by HPLC. The Pe was determined as previously reported. ^[47]

PAMPA-BBB assay = assay: PAMPA-BBB assay; set-up: Papp at 18 h: dose or concentration left out as unconfirmed; conditions: for Papp at 18 h: pig, PAMPA
Procedure: as §1
PAMPA‐BBB assays were performed following the same procedure described above for PAMPA‐GI. Briefly, an artificial membrane consisting in a porcine polar brain lipid extract mixture (purchased from Avantis Polar Lipids, Alabaster, AL, USA) and an incubation time of 18 h were adopted as experimental conditions.

nNOS = system: nNOS; set-up: method as in PMID 20933416; conditions: previously reported; cited from earlier work
eNOS = system: eNOS; set-up: method as in PMID 20933416; conditions: previously reported; cited from earlier work
iNOS = system: iNOS; set-up: method as in PMID 20933416; conditions: previously reported; cited from earlier work
mARC = system: mARC; set-up: method as in PMID 31790578; conditions: known in vivo studies; cited from earlier work
[2] = porcine polar brain lipid, 18 h

logD ([1]; n-octanol/aqueous buffer, pH 1.4, n-octanol/aqueous buffer pH 1.4, mean ± SD of three, read-out: log D 1.4) | logD ([1]; n-octanol/aqueous buffer, pH 6.5, n-octanol/aqueous buffer pH 6.5, mean ± SD of three, read-out: log D 6.5) | logD ([1]; n-octanol/aqueous buffer, pH 9.4, n-octanol/aqueous buffer pH 9.4, mean ± SD of three, read-out: log D 9.4) | logP ([1]; n-octanol/aqueous buffer) | Papp at 2 h (PAMPA-GI assay; pH 1.4) [×10⁻⁶ cm/s] | Papp at 2 h (PAMPA-GI assay; pH 6.5) [×10⁻⁶ cm/s] | Papp at 2 h (PAMPA-GI assay; pH 7.4) [×10⁻⁶ cm/s] | PAMPA-GI permeability (in words) (PAMPA-GI assay) | Papp at 18 h (PAMPA-BBB assay; PAMPA-BBB permeability Pe, porcine polar brain lipid, 18 h) [×10⁻⁶ cm/s] | melting point [°C] | logD ([1]; n-octanol/aqueous buffer pH 1.4, mean ± SD of three, read-out: log D 1.4) | logD ([1]; n-octanol/aqueous buffer pH 6.5, mean ± SD of three, read-out: log D 6.5) | logD ([1]; n-octanol/aqueous buffer pH 9.4, mean ± SD of three, read-out: log D 9.4) | Papp at 18 h (PAMPA-BBB assay) [×10⁻⁶ cm/s] | Structure (SMILES) | PAMPA-BBB permeation class (PAMPA-BBB assay; [2]) | IC50 (nNOS) [nM] | eNOS/nNOS selectivity (eNOS) [folds] | iNOS/nNOS selectivity (iNOS) [folds] | conversion to the corresponding benzamidine in vivo (mARC)
-0.85 | -0.31 | 0.75 | 2.54 | 0.57 | 1.02 | 1.88 | good permeability | 2.7 | 278 to 280 |  |  |  |  | Br.CC(=N)NC(c1ccccc1)c1ccccc1 [Compound 1, 1‐(benzhydrylamino)ethaniminium bromide] | CNS± (CNS± (discrete BBB permeation): Pe from 4.0 to 2.0) | 300 | 1166 | 100 | 
 |  |  |  |  |  |  |  |  |  |  |  |  |  | NC(=NO)c1ccccc1 [BAO, benzamidoxime] |  |  |  |  | completely converted
 |  |  | -1.66 | 0.98 | 1.02 | 1.86 | good permeability |  |  | -1.82 | -1.78 | -1.66 | 1.49 | CC(=N)NCc1cccc(CN)c1 [1400 W, reference compound] | CNS− (CNS− (indicative of low BBB permeation): Pe <2.0) |  |  |  | 
